Experimental data as given in US10702498B2 (priority 2015, dated 2020).
“Also recorded” adds a separate entry of the source.

What was measured:
μOR [1] = molecular target: T1, μOR (Homo sapiens (Human), UniProt P35372); assay: biochemical; type: binding
μOR [2] = molecular target: T1, μOR; conditions: no Ki given
[3] = molecular target: human μOR β-arrestin2 recruitment + GRK2 (Homo sapiens (Human), UniProt P35372); assay: β-Arrestin2 recruitment with GRK2 co-expression (BRET); type: cell-based
[4] = molecular target: T2, μOR β-arrestin2 recruitment (Homo sapiens (Human), UniProt P35372); assay: β-Arrestin2 recruitment without GRK2 co-expression (BRET); type: cell-based
κOR = κOR (Homo sapiens (Human), UniProt P41145); assay: Gi/o Glosensor assay (agonist and antagonist mode)
mice [5] = assay: Conditioned place preference; type: in vivo; conditions: mouse
Procedure: On day 1 (preconditioning day), mice were placed in the central chamber and allowed to explore freely for 30 minutes. Time spent in each compartment was used to estimate baseline chamber preferences and mice showing specific chamber bias more than 70% were not studied further. On days 2-9 (conditioning days) mice were injected with either vehicle or drug and paired with either the white mesh or the black rod chambers. All mice received vehicle on days 2, 4, 6, 8 and drug on days 3, 5, 7, 9. On day 10 (test day), mice were again placed in the central chamber as on day 1 and allowed to explore freely for 30 minutes. Time spent in each chamber was expressed as percentage preference.

mice [6] = assay: Whole body plethysmography (respiration); conditions: mouse; equianalgesic doses PZM21 40 mg/kg, TRV130 […], morphine 10 mg/kg
μOR [7] = molecular target: T1, μOR; assay: cell-based; type: cell-based
MOR = MOR (Homo sapiens (Human), UniProt P35372); assay: Functional annotation (MOR agonist / antagonist), method not stated
nociceptin receptor = nociceptin receptor (Homo sapiens (Human), UniProt P41146); assay: Gi/o Glosensor assay
[8] = molecular target: T2, μOR β-arrestin2 recruitment; assay: β-Arrestin recruitment, PathHunter enzyme complementation assay (DiscoveRx OPRM1 CHO-K1); type: cell-based
hMOR + Gqi5 = hMOR + Gqi5 (Homo sapiens (Human), UniProt P35372); assay: IP accumulation assay; type: cell-based; conditions: % morphine
μOR [9] = molecular target: T1, μOR; assay: Calcium release (FLIPR); type: cell-based
Procedure: Calcium release was measured using a FLIPR^TETRA fluorescence imaging plate reader (Molecular Devices). Calcium release experiments were run in parallel to Gi/o Glosensor experiments with the same HEKT cells transfected with μOR, except cells for FLIPR were plated in poly-lysine coated 384-well black clear bottom cell culture plates. […] Dye was incubated for 1 hour at 37° C. Afterwards, cells were equilibrated to room temperature, and fluorescence in each well was read for the initial 10 seconds to establish a baseline. Afterwards, 10 μL of drug (3×) was added per well and the maximum-fold increase in fluorescence was determined as fold-over-baseline. Drug solutions used for the FLIPR assay were exactly the same as used for Gi/o Glosensor experiments. To activate endogenous Gq-coupled receptors as a positive control for calcium release, TFLLR-NH2 (10 μM, PAR-1 selective agonist) was used.

C57BL/6J mice [10] = assay: Tail-flick assay; type: in vivo; conditions: mouse
mice [11] = assay: Accumulated fecal boli quantification (constipation); conditions: mouse
humanDOR = humanDOR (Homo sapiens (Human), UniProt P41143); assay: Receptor binding, [3H]diprenorphine
Chain of humanDOR (P41143 whole entry): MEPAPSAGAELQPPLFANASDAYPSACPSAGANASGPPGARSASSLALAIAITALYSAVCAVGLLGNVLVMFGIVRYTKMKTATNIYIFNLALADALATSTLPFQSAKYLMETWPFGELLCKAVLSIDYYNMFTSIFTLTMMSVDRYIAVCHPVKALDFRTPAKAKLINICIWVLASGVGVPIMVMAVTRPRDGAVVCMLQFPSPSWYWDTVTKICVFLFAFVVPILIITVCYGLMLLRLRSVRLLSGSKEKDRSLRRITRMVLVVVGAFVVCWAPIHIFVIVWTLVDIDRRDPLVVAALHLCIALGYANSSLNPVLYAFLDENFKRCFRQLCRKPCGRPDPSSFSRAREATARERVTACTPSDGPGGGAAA

[12] = Pharmacokinetics: serum and brain concentrations; type: in vivo; conditions: mouse
Procedure: Studies were performed by the Preclinical Therapeutics Core and the Drug Studies Unit at the University of California San Francisco. […] All studies were performed with approved mouse protocols from the institutional animal care and use committees.

[13] = tested on: μOR Gi/o versus β-arrestin signaling; assay: Ligand bias calculation (operational model)
[14] = tested on: Oprm1−/− and wild-type C57Bl/6J mice; assay: Hot-plate: affective/reflexive subcategorization and μOR knockout mice; type: in vivo, mouse
mice [15] = assay: Formalin injection assay; type: in vivo; conditions: mouse
316 other GPCRs = assay: PRESTO-Tango GPCRome β-arrestin recruitment counter-screen; type: cell-based; conditions: 10 μM screen, hits re-tested in full dose-response
Text: Potential positive receptor hits were defined as those that increase the relative luminescence value by two fold. […] A number of false positive hits were discounted by this approach.

mice [16] = assay: Open field locomotor response; conditions: mouse
μOR [17] = molecular target: T1, μOR; assay: Receptor internalization (PathHunter GPCR internalization, U2OS cells); type: cell-based
mice [18] = assay: Catalepsy bar test; conditions: mouse
hKOR = hKOR (Homo sapiens (Human), UniProt P41145); assay: Receptor binding, [3H]diprenorphine; conditions: hKOR [3H]dyprenorphine Ki
Chain of hKOR (P41145 whole entry): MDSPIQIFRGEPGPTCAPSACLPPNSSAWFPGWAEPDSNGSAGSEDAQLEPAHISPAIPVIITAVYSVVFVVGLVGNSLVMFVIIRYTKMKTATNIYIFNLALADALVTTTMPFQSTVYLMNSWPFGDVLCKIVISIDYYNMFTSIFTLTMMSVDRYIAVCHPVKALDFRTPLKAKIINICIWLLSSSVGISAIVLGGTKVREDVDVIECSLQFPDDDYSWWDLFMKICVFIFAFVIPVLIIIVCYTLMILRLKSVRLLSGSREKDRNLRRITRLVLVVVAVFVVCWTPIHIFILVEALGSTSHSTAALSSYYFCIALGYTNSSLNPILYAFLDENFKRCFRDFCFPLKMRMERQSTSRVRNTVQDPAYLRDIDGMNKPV

C57BL/6J mice [19] = assay: Hot-plate analgesia assay; type: in vivo; conditions: mouse
δOR = δOR (Homo sapiens (Human), UniProt P41143); assay: Gi/o Glosensor assay

T1 sequence (P35372 whole entry): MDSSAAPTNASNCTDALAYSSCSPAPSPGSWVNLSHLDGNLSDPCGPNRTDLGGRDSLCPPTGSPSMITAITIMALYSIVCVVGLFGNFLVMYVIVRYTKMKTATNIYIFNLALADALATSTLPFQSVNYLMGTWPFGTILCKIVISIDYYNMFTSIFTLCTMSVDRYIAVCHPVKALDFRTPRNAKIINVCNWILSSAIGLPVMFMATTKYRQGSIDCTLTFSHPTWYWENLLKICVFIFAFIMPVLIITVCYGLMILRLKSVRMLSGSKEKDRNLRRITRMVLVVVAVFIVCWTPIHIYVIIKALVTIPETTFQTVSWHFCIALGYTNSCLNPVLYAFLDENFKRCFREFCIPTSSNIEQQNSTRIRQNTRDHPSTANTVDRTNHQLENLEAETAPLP

SMILES: CCN1CCC[C@@H](NC(=O)NCCc2ccc(OC(C)C)cc2)C1 [compound 6]
- Ki (μOR [1]): 10000 nM

SMILES: O=C(Cc1cn2ccccc2n1)NCC1(c2ccccc2)CCC1 [compound 9]
- μOR binding, given as <50% (μOR [2]): <50%

SMILES: COc1ccsc1CNCC[C@@]1(c2ccccn2)CCOC2(CCCC2)C1 [TRV130, reference compound]
- arrestin recruitment with over-expressed GRK2 [3]: we observe arrestin recruitment
- β-arrestin2 recruitment in the absence of GRK2 [4]: no β-arrestin2 recruitment
- κOR agonist activity (κOR): activates KOR with similar potency to morphine
- conditioned place preference (mice [5]): not significant relative to vehicle
- respiration frequency / respiratory depression (mice [6]): significantly depresses respiration at 15 minutes

SMILES: CN(C)[C@H](CNC(=O)NCCc1ccsc1)Cc1ccc(O)cc1 [DD 16, (S)-1-(2-(dimethylamino)-3-(4-hydroxyphenyl)propyl)-3-(2-(thiophen-3-yl)ethyl)urea]
- Gi/o pEC50 (μOR [7]): 8.122
- EC50 (MOR; read-out: MOR agonist (potency printed under structure)): 58 nM
- Arrestin + GRK2 pEC50 ([3]; GRK2 co-expressed): 6.843
- Arrestin pEC50 [4]: 6.387

SMILES: C[C@H](Cc1ccsc1)NC(=O)NC[C@@H](Cc1ccccc1)N(C)C [compound 12]
- Emax (μOR [7]; read-out: Gi/o (Glosensor) Emax (%) μOR): 88%
- Emax (nociceptin receptor; read-out: Gi/o (Glosensor) Emax (%) nociceptin): 43%
- Emax ([8]; read-out: Arrestin recruitment (PathHunter) Emax (%) μOR): 9.4%

SMILES: Cc1cc(O)cc(C)c1C[C@@H](CNC(=O)NCCc1ccsc1)N(C)C [DD 34L, (S)-1-(2-(dimethylamino)-3-(4-hydroxy-2,6-dimethylphenyl)propyl)-3-(2-(thiophen-3-yl)ethyl)urea]
- functional mode (MOR): DD 34L (ANTAGONIST) [drawing 446]
- hMOR + Gqi5 IP accumulation assay efficacy a (hMOR + Gqi5): a: <5%

SMILES: C[C@@H](Cc1ccsc1)NC(=O)NC[C@H](Cc1ccc(O)cc1)N(C)C [PZM21, 1-[(S)-2-(Dimethylamino)-3-(4-hydroxyphenyl)propyl]-3-((S)-1-(thiophen-3-yl)propan-2-yl)urea]
- Gi/o activation / μOR agonist activity (μOR [7]): robust μOR agonist activity
- effect on cAMP levels with pertussis toxin (μOR [7]): eliminated by pertussis toxin
- calcium release (μOR [9]): no activity was observed in a calcium release assay
- tail-flick analgesia (C57BL/6J mice [10]): no activity in a tail flick assay; also recorded: no analgesic effect
- constipation effect / defecation (mice [11]): reduced constipatory effects as compared to morphine; also recorded: substantially less than morphine
- Ki (humanDOR): 470 ± 98 nM
- blood brain barrier penetration [12]: substantial fraction of PZM21 crosses the blood brain barrier
- signaling bias [13]: undistinguishable from TRV130; also recorded: substantially exceeded that of herkinorin
- analgesia in μOR knockout mice ([14]; hot-plate): genetic knockout of the μOR completely ablates the observed analgesic response
- affective versus reflexive component of pain ([14]; mouse hot-plate): only modulates the affective component of pain; also recorded: solely confers analgesia to the affective component of pain
- formalin injection nociception (mice [15]): active in a formalin injection nociception assay
- agonism against 316 other GPCRs (316 other GPCRs): no potent activity was confirmed with a full dose-response experiment
- nociceptin receptor agonist activity (nociceptin receptor): no detectable KOR or nociceptin receptor agonist activity
- arrestin recruitment with over-expressed GRK2 [3]: weak arrestin recruitment efficacy compared to DAMGO and even to morphine; also recorded: we observe arrestin recruitment
- open field locomotion (mice [16]): does not induce open field locomotion; also recorded: no apparent effect on locomotion versus vehicle
- β-arrestin2 recruitment in the absence of GRK2 [4]: no β-arrestin2 recruitment
- μOR internalization (μOR [17]): minimal level of μOR internalization compared to DAMGO and morphine
- β-arrestin2 recruitment in PathHunter assay [8]: undetectable β-arrestin2 recruitment; also recorded: minimal recruitment of β-arrestin2; also recorded: no detectable 3-arrestin2 recruitment
- activity at KOR (antagonist mode, words) (κOR): antagonist at KOR
- κOR agonist activity (κOR): no detectable KOR or nociceptin receptor agonist activity; also recorded: lack of agonist activity
- cataleptic effect (mice [18]): does not induce cataleptic behavior; also recorded: does not reflect a cataleptic effect
- hMOR + Gqi5 IP accumulation assay efficacy a (hMOR + Gqi5): a: 73%
- conditioned place preference (mice [5]): does not induce a conditioned place preference response
- Ki (hKOR): 33 ± 5.6 nM
- hot-plate analgesia (C57BL/6J mice [19]; s.c.): dose-dependent analgesia
- hot-plate percent maximal possible effect (% MPE) (C57BL/6J mice [19]; 15 minutes after the highest dose tested): 87%
- Emax (δOR; read-out: Gi/o (Glosensor) Emax (%) δOR): 78%
- weaker δOR agonist than μOR agonist (δOR; selectivity): 500 fold
